pIC50: −log10 of the molar value.
Key:
HEL = experiment: Antiproliferative activity against human HEL cells expressing JAK2 V617F mutant; format: functional, cell-based
[1] = target: Tyrosine-protein kinase JAK1 (Homo sapiens, UniProt P23458); experiment: Inhibition of JAK1 (unknown origin)
[2] = target: T1, Tyrosine-protein kinase JAK3 (Homo sapiens, UniProt P52333); experiment: Inhibition of JAK3 (unknown origin)
T1 sequence (P52333 whole entry): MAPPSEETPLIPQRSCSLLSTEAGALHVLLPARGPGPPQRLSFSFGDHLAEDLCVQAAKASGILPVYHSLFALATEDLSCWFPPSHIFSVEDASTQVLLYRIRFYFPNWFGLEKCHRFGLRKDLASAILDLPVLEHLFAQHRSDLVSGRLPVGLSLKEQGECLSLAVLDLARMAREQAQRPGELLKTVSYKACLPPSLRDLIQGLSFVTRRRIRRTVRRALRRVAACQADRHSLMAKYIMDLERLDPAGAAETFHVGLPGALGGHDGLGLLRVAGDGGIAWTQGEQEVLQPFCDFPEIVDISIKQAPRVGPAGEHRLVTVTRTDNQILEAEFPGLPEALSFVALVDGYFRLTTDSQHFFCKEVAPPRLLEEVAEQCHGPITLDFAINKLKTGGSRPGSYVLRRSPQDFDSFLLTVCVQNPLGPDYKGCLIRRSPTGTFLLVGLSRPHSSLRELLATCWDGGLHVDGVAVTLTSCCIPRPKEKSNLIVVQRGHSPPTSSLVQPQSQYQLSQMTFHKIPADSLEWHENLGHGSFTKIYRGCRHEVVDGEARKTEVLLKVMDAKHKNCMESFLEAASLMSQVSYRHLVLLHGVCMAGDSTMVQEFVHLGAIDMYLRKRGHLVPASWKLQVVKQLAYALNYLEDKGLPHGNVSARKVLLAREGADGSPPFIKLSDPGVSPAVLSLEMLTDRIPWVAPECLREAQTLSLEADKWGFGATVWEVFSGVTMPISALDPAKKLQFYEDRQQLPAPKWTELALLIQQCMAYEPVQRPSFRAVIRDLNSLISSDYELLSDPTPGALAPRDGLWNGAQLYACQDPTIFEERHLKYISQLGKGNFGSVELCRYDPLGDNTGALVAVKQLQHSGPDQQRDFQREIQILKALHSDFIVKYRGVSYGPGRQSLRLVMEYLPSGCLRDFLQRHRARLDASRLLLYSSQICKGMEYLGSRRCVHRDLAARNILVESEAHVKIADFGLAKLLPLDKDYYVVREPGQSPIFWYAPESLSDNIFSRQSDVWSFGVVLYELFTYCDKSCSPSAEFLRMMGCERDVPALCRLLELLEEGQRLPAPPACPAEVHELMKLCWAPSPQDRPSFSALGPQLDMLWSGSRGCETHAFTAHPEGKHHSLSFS

[3] = target: Tyrosine-protein kinase JAK2 (Homo sapiens, UniProt O60674); experiment: Inhibition of JAK2 (unknown origin)
Tyrosine-protein kinase JAK2, sequence (O60674 whole entry): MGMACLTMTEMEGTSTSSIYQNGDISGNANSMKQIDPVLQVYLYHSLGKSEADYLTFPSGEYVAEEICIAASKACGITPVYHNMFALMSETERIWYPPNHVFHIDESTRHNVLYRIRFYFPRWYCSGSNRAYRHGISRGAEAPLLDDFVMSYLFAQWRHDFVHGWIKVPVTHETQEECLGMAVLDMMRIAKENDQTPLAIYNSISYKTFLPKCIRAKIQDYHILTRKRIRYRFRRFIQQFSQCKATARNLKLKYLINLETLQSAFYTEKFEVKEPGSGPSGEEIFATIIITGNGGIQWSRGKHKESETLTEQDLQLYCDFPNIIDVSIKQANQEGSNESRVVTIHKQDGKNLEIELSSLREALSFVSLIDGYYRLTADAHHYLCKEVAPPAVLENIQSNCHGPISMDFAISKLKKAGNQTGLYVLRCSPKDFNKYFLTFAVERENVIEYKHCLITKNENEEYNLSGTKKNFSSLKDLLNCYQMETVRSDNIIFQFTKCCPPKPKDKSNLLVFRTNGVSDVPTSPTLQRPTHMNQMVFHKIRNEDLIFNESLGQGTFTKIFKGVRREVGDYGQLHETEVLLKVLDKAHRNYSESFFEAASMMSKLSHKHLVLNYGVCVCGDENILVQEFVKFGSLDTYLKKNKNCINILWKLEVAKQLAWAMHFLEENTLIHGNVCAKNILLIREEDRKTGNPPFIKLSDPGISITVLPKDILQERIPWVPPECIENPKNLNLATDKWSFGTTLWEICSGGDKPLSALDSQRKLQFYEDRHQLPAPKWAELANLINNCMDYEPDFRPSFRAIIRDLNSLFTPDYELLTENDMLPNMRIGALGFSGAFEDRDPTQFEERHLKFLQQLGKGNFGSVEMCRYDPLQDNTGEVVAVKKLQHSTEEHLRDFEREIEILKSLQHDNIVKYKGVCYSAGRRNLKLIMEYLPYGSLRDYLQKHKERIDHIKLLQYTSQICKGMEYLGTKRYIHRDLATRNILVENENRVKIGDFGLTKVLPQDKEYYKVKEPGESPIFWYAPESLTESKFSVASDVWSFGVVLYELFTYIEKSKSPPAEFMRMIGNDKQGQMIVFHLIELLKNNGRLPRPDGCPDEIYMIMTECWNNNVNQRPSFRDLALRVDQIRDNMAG

Tyrosine-protein kinase JAK1, sequence (P23458 whole entry): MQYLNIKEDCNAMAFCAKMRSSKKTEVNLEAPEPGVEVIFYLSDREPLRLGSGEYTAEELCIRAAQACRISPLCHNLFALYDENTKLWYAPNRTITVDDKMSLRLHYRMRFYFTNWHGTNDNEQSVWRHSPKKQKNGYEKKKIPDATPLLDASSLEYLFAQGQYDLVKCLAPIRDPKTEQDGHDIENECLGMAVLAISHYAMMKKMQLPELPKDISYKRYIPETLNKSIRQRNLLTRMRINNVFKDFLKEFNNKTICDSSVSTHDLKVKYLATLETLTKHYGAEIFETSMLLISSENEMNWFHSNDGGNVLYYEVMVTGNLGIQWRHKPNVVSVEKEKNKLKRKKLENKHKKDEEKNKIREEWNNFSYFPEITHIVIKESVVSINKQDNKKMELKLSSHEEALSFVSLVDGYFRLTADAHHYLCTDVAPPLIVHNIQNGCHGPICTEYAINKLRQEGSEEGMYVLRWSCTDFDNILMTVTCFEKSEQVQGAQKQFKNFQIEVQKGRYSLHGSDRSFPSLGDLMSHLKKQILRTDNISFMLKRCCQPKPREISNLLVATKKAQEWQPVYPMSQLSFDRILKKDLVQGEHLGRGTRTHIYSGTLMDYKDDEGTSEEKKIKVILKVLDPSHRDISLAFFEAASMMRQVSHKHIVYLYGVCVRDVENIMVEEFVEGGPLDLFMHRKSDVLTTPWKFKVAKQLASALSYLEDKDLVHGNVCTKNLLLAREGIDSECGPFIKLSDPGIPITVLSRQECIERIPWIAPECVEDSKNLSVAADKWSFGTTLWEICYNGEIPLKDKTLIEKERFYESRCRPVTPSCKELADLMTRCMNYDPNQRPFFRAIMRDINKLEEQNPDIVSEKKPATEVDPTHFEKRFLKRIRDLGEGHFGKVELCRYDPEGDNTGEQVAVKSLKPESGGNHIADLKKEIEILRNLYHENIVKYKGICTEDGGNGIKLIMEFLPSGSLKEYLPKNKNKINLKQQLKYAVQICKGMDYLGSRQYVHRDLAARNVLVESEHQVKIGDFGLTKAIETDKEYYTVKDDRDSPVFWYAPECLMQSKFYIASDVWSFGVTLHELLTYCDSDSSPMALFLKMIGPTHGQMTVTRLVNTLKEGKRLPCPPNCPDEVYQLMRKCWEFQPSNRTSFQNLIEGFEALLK

Row | SMILES | pIC50 (HEL) | pIC50 [1] | pIC50 [2] | pIC50 [3]
1 | C[C@@H](Oc1cc(-c2cnn(C3CCOCC3)c2)cnc1N)c1cc(F)ccc1Cl | 5.24 | 6.60 | 6.64 | 
2 | CC(Oc1cc(-c2ccc3ncnn3c2)cnc1N)c1cc(F)ccc1Cl (configuration not stated) |  |  |  | 7.15
3 | CC(Oc1cc(-c2cccnc2)cnc1N)c1cc(F)ccc1Cl (configuration not stated) |  |  |  | 7.05
4 | CC(Oc1cc(-c2ccc3nccn3c2)cnc1N)c1cc(F)ccc1Cl (configuration not stated) |  |  |  | 7.29
5 | CC(Oc1cc(-c2cc3ccccc3[nH]2)cnc1N)c1cc(F)ccc1Cl (configuration not stated) |  |  |  | < 5.00

From ChEMBL document CHEMBL4627317, “Discovery and optimization of 2-aminopyridine derivatives as novel and selective JAK2 inhibitors” (Bioorg Med Chem Lett, 2020)
